# A melting point compilation (Tetko et al.)
row,SMILES,melting point [°C]
1,Cc1c(N/N=C(/C(=O)c2cccc3ccccc23)S(=O)(=O)c2ccccc2)c(=O)n(-c2ccccc2)n1C,110
2,O=C(O)C=Cc1cccc(C(F)(F)F)c1,136
3,O=c1[nH]c2scc(-c3ccccc3)c2c(=O)n1-c1ccc(Cl)c(Cl)c1,274 to 276
4,OC(c1ccc(Cl)cc1)c1cc2ccccc2o1 (configuration not stated),48.5
5,Cc1ccc(I)cc1[N+](=O)[O-],60
6,NS(=O)(=O)c1ccc(SCCCO)cc1,117
7,Cc1cc(C(=O)O)c(-c2ccccc2)o1,145 to 147
8,CCCCCCCCNCCCCCCCC,35.5
9,Cc1ccc(S(=O)(=O)n2ccnc2)cc1,75 to 80
10,CSc1nnc(C(C)(C)C)c(=O)n1N,126
11,NC(CSCc1ccccc1)C(=O)Nc1ccc([N+](=O)[O-])cc1 (configuration not stated),100 to 102
12,C#CCCCCCCCCC(=O)O,42
13,CC1C(c2ccccc2)=Cc2ccccc21 (configuration not stated),58
14,O=C1C(=Cc2ccc(N(CCCl)CCCl)cc2)SC(=S)N1CN(CCCl)CCCl,106
15,COc1ccc(C(=CC(=O)N2CCOCC2)c2ccc(Cl)cc2)cc1OC,148
16,CC(=O)Oc1c(-c2ccccc2)[nH]c2cc([N+](=O)[O-])ccc12,191
17,N#Cc1ccc(CN2CCOCC2)cc1,86 to 87
18,N#Cc1ccc(OCCN2CCOCC2)cc1,87 to 90
19,CC1=NN(c2ccccc2)C(=O)C1C(Br)C1(Br)C(=O)N(c2ccccc2)N=C1C (configuration not stated),307 to 308
20,CCOC(=O)c1c(N)sc(C)c1-c1ccccc1,92 to 93
21,c1ccc2cc3c4ccccc4c4ccccc4c3cc2c1,206
22,CC(C)NCC(O)c1ccc(O)c(O)c1 (configuration not stated),170

row,SMILES,melting point [°C]
1,FC(F)(Cl)C(F)(Cl)Cl,-35
2,O=S1(=O)OCCO1,99
3,O=C(O)CCC(=O)Nc1ccc(S(=O)(=O)Nc2nccs2)cc1,194
4,O=C(CCl)Nc1ccccc1Cl,70 to 73
5,CCOc1cc(C(C)(C)C)ccc1C1COC(c2c(F)cccc2F)=N1 (configuration not stated),102
6,N#C/C(=C\c1cccs1)c1nc(-c2cccc3ccccc23)cs1,205 to 207
7,Cc1cc(N)c([N+](=O)[O-])cc1C,141
8,NS(=O)(=O)c1cc(C(=O)c2ccc(O)cc2)cs1,192
9,Cc1ccccc1P(c1ccccc1)c1ccccc1,72
10,CS(=O)CCC(N)C(=O)O (racemic),232 to 234
11,CC(C)(C(=O)O)C(F)(F)F,70
12,O=C1C=CC(=O)N1Cc1ccccc1,69
13,O=C(O)c1ccc(N2CCOCC2)cc1,278 to 281
14,COC(=O)[C@H]1C[C@H](NC(=O)OC(C)(C)C)[C@@H](O)C1,71.2
15,CS(=O)(=O)CN1C(=O)NC(c2ccccc2)(c2ccccc2)C1=O,196 to 197
16,CCNc1nc(Cl)nc(NC(C)(C)C)n1,178
17,Oc1cc(-c2ccccc2)c2cc(Br)cc(Br)c2n1,210 to 211
18,Brc1ccc(Oc2cccc(Br)c2)cc1,< 20
19,CC1(C)C(C=C(Br)Br)C1C(=O)OC(C#N)c1cccc(Oc2ccccc2)c1 (configuration not stated),100
20,Nc1ccc(OCCN2CCOCC2)cc1,53 to 57
21,O=C(O)CS(=O)(=O)c1ccccc1,112 to 114
22,Cc1ccccc1NC(=S)NN,147

row,SMILES,melting point [°C]
1,NNC(=S)NCc1ccc2c(c1)OCO2,158 to 160
2,O=C1c2ccccc2CC2C=CC=CC12 (configuration not stated),152
3,Clc1cccc(Cl)c1I,64 to 67
4,Cc1ccncc1C=NO,180
5,CC(=O)Oc1ccccc1C(C)=O,90
6,CC(=O)c1cc(F)cc(F)c1,39
7,CSc1nc2cc(NCc3ccccc3)ccc2[nH]1,164 to 167
8,CN(c1c(F)c(F)c(-c2c(F)c(F)c(F)c(F)c2F)c(F)c1F)N(O)O,140
9,COc1ccc(-c2ocnc2C(=O)O)cc1,147 to 151
10,CC(C)(C)NCC(O)c1ccccc1Cl (configuration not stated),89
11,O=[N+]([O-])c1ccc2c3c(cccc13)-c1ccccc1-2,153 to 157
12,CC1=C(c2ccccc2)c2ccccc2/C1=N/NC(N)=O,200 to 201
13,NC(=O)CCCNC(=C1C=C(F)C=CC1=O)c1ccc(Cl)cc1,134
14,O=C(Cl)c1cn(S(=O)(=O)c2ccccc2)c2ccccc12,144
15,Brc1ccccc1-c1nnn[nH]1,182 to 184
16,NC(=O)C12CC3CC(CC(C3)C1)C2,189
17,Nc1cccc(Oc2ccccn2)c1,76 to 78
18,O=[N+]([O-])c1cccc2cccc(Cl)c12,95.8
19,CC1(C)OC[C@H](CC(N)=O)O1,108 to 109
20,CCOC(=O)Cc1ccc([N+](=O)[O-])cc1,64
21,O=C(O)C(CCCc1ccccc1)c1ccccc1 (configuration not stated),78
22,COc1ccc(OCC(=O)O)cc1,112 to 114

# Other lines, results leading:
row,melting point [°C],SMILES
1,180,O=C1/C(=N/Nc2ccc(Cl)cc2)C(C(F)(F)F)=NN1c1ccccc1
2,36,Nc1c(Cl)cc(C(F)(F)F)cc1Cl
3,264,Cn1c(=O)c(C2=NNC(=O)C2=NNc2ccccc2Cl)c(O)c2ccccc21
4,88,O=C1c2ccccc2C(=O)C1(CN1CCOCC1)c1ccccc1
5,132,CC(=O)OCC(OC(C)=O)C(OC1OC(COC(C)=O)C(OC(C)=O)C(OC(C)=O)C1OC(C)=O)C(OC(C)=O)C(C#N)OC(C)=O (configuration not stated)
6,194,O=C(O)c1cc(Cl)c(Cl)c(Cl)c1Cl
7,14,Nc1cc(F)ccc1F
8,206 to 207,C=CCn1c(=S)[nH]c2ccccc2c1=O
9,177 to 185,ON=C(O)c1ccccc1O
10,157 to 158,O=C(C=Cc1ccc(-c2ccc([N+](=O)[O-])cc2)o1)c1ccccc1
11,252 to 260,Brc1ccc(-c2nc(-c3ccccc3)c(-c3ccccc3)[nH]2)cc1
12,139,COc1ccc(C(=O)C=CC(=O)O)cc1
13,175,CC1=NN(CN2CCOCC2)C(=O)/C1=N\Nc1cc(Cl)c(Cl)cc1Cl
14,168,O=C(O)c1ccccc1OP(=O)(O)O
15,56,Cc1ccc(O)cc1Br
16,69 to 74,O=S(=O)(Cl)c1ccc2nsnc2c1
17,300,NCc1ccc(C(=O)O)cc1
18,215 to 218,Cc1cc2c3c(c1)c(O)c(-c1ccccc1)c(=O)n3CCC2
19,220 to 221,CC(O)C1(O)CC2C3CCC4(C)CC(O)CCC4(C)C3CCC2(C)C1 (configuration not stated)
20,93 to 95,O=[N+]([O-])c1cccc(Oc2ccccn2)c1
21,87 to 89,CCOC(=O)c1sc(SC(C)C)c2c1CC(C)(C)CC2=O

row,melting point [°C],SMILES
1,74,O=C(CC(=O)C(F)(F)F)c1ccc2ccccc2c1
2,166,COC(=O)C=Cc1ccc(C=CC(=O)OC)c([N+](=O)[O-])c1
3,116 to 119,CC(=O)Nc1ccc(Br)c(C(F)(F)F)c1
4,95,CCN(CC)C(=O)c1ccc(O)c(OC)c1
5,181,Nc1cc(Cl)c(Cl)cc1[N+](=O)[O-]
6,155,Clc1ccc(C=NC2Nc3ccccc3N2)cc1
7,135 to 137,BrCc1ccc(-c2csnn2)cc1
8,95,CCCNC(=O)NNC(=O)OCC
9,94,COc1ccc(C#N)c(OC)c1
10,31.5,CCCCCCCCCCCC(O)CC (configuration not stated)
11,-90,FC(F)(F)C(F)(F)C(F)(F)C(F)(F)C(F)(F)C(F)(F)OC(F)(F)C(F)(F)C(F)(F)C(F)(F)C(F)(F)C(F)(F)F
12,120,CN(C)C(=O)Nc1cc(C(C)(C)C)on1
13,34 to 37,CC(O)c1c(F)c(F)c(F)c(F)c1F (configuration not stated)
14,180,O=C(c1ccccc1)N1CC(c2ccccc2)C=C1c1ccccc1 (configuration not stated)
15,124,CCC(=C(CC)c1ccc(OC)cc1)c1ccc(OC)cc1
16,50 to 52,CCOC(=O)c1cnn(-c2ccc(Cl)cc2)c1C(F)(F)F
17,261,O=C(O)c1cncc(-c2cccs2)c1
18,243,CCOC(=O)C1=C(C)NC(=O)NC1c1cccc(Cl)c1Cl (configuration not stated)
19,30,Nc1c(F)cc(F)cc1Cl
20,124 to 127,COC(=O)c1c(C=O)c(C)n(C)c1C
21,43 to 44,Nc1cccc(-n2cccc2)c1

row,melting point [°C],SMILES
1,210,CC12C=CC(=O)C=C1C(F)CC1C2C(O)CC2(C)C1CCC2(O)C(=O)CO (configuration not stated)
2,362 to 363,COC(=O)C1=C(C(=O)OC)C(=O)C(=C2C=Cc3ccccc3N2)C1=O
3,161 to 163,CNc1ccccc1C(N)=O
4,54,CC(=O)c1ccc(CO)cc1
5,200,COc1ccc(-c2nnc3n2NCS3)cc1
6,71 to 86,O=C(O)CCN1CCNCC1
7,118,CC1CCCC(C)N1C(=O)COC(=O)c1ccccc1 (configuration not stated)
8,205,CNc1ccc2cc3ccc4c(c3nc2c1CO)COCN4S(C)(=O)=O
9,123 to 124,O=C(O)Cc1ccc(OCc2ccccc2)cc1
10,202,CC1(C)C=C(C(=O)O)C(C)(C)N1O
11,150,O=C(OCC(=O)N1CCC1C(=O)O)c1ccccc1 (configuration not stated)
12,161 to 162,CCOC(=O)C(C#N)=NNc1ccc(Cl)cc1
13,268,NC(=O)c1nccnc1C(N)=O
14,107,O=C1OC(=O)c2cc(Br)ccc21
15,120 to 124,N#CC(N)C(N)=O (configuration not stated)
16,210 to 212,Cn1c(C(=O)O)ccc1S(N)(=O)=O
17,267,O=C1CCC/C1=C1\C(=O)Nc2ccccc21
18,6.5,CCCCCCCCCCCCC(=O)OC
19,151 to 153,NNC(=O)CNS(=O)(=O)c1cccc2nsnc12
